Half-life, IC50 and inhibition data for ten molecules are collected here from US20250163032A1, “NOVEL MOLECULES AS INHIBITORS OF DNA DAMAGE REPAIR PATHWAY” (VRise Therapeutics, Inc., priority 2023, published 2025).

Each structure is given as a SMILES string. pIC50: −log10 of the molar value.

A short description of data set [1]: Metabolic stability, human liver microsomes. It counts as in vitro ADME. The following applies: pH 7.4, 1 μM test item, 1 mM NADPH, 60 minutes. As to the method: (§1) Test-8: Metabolic Stability
(§2) Metabolic stability studies were conducted using mouse, rat, and human liver microsomes. The protocol for the studies with mouse and human liver microsomes (Gibco-Thermo) is provided below.
(§3) In brief, 0.25 mg protein was preincubated in phosphate buffer (pH˜7.4) for 5 min at 37° C. and then added with 1 μM test item followed by addition of 1 mM NADPH (cof actor) and incubated further over a period 60 minutes in duplicate. The reaction mixture was terminated with acetonitrile containing an internal standard and centrifuged further to analyse the test item remaining in the supernatant by LC-MS/MS at different intervals. The percent parent compound remaining was calculated in comparison with similar samples terminated at 0 minutes.

For data set [2], the target named is USP1/UAF1 (Homo sapiens, UniProt O94782). The data set is described as follows: USP1/UAF 1 assay (ubiquitin-rhodamine110 fluorometric deubiquitinase assay). It counts as biochemical. The following applies: for pIC50: 1 nM USP1/UAF1, 150 nM Ub-Rho, read-out: Biochemical assay IC50.
Data set [3] concerns MD-MBA-436. Description: Cell viability assay (CTG assay). It counts as cell-based, human. The following applies: Homo sapiens, 7th day. As to the method:
Test 5: Cell Viability Assay (CTG Assay):
Growth inhibition assays was carried out using […] supplemented media. Cells were seeded at a desired concentration of 1000-6,000 cells/well in a well plate with desired number of wells. Test compounds at a desired concentration range were added after 24 hours. Growth was assessed using the Cell Titer-Glo (CTG, Cell Signaling) for measuring reduction at 7th day after the addition of test compound chemiluminescence values were read by a plate reader. Data was be analysed and percent inhibition and/or IC50 for each test compound is calculated accordingly.

Data set [4] in a line: Metabolic stability, mouse liver microsomes. It counts as in vitro ADME. The following applies: pH 7.4, 1 μM test item, 1 mM NADPH, 60 minutes. As to the method:
as §1, §2, §3
On the technique in general: Liver microsomes are vesicles of endoplasmic reticulum, rich in cytochrome P450 enzymes.

In data set [5] the test system is NCI-H1792. Description: Cell viability assay (MTT assay), NCI-H1792. It counts as cell-based. The following applies: Homo sapiens, tested at 10 uM, 168 hours (Test-3). On the procedure:
Test-3: Cell Viability Assay (MTT Assay):
Cell viability assay was carried out using 10% FBS supplemented media. Cells were seeded at desired density in 96 well plate and incubated in a humidified CO2 incubator. After 24 hours of plating, test compounds at desired concentration range were added to the plates and incubated in the CO2 incubator for 168 hours. Post 168 hrs treatment, 12.5 μL of MTT was added to all wells including DMSO control. MTT treated plates were incubated further for 3 hours and MTT crystals were dissolved using 125 μL of DMSO. Absorbance was read on a BIO-RAD iMark Microplate plate reader at a wavelength of 570 nm. Data was analysed and percent inhibition (IC50) due to the test compound compared to the control was calculated using GraphPad Prism.
On the technique in general: Formazan colour is commonly taken as a measure of viable cells.

Sequence of USP1/UAF1 (O94782 whole entry): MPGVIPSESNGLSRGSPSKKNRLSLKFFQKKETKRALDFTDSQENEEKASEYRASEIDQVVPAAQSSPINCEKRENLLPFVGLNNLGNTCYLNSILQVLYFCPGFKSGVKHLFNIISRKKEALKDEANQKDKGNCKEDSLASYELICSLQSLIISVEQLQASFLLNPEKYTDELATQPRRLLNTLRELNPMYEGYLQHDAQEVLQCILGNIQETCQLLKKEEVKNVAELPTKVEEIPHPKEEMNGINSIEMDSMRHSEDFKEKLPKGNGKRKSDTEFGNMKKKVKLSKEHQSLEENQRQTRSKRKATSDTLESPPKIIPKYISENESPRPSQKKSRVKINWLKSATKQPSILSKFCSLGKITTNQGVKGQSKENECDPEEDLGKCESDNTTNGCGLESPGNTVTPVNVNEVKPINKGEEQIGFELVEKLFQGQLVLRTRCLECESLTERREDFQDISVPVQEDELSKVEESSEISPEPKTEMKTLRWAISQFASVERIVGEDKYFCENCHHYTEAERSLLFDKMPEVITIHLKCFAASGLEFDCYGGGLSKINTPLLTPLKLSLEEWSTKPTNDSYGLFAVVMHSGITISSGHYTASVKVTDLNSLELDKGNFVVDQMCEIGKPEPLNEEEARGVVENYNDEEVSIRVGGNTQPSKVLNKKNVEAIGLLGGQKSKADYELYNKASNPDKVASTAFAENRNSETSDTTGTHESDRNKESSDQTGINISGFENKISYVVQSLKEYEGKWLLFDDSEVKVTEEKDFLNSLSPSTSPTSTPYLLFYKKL
Sequence of USP1/UAF1 (Q8TAF3 whole entry partner): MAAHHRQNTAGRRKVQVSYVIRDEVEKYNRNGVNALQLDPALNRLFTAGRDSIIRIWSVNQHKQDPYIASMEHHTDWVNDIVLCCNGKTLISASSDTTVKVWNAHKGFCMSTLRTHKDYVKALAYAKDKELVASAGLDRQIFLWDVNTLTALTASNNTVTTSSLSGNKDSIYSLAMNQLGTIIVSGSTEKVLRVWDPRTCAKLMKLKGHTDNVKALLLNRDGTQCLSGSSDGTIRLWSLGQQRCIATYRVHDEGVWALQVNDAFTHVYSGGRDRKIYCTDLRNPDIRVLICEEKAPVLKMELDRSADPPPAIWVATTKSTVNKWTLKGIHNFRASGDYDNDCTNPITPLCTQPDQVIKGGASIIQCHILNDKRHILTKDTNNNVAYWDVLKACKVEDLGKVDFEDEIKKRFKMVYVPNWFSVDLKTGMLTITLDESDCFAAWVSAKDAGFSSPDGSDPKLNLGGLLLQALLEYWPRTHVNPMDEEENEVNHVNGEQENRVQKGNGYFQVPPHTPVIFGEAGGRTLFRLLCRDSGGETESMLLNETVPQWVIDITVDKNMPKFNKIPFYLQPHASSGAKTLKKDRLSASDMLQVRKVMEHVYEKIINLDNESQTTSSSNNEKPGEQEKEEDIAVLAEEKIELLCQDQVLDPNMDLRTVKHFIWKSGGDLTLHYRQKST

As a reminder, the half-life is how long it takes for the measured level to halve. Low values mean fast loss, high ones slow loss. For orientation: pIC50 means the IC50 on a negative log10 scale, so that one unit is a factor of ten. A word on the inhibition: it is how much of the control response was suppressed. With `COc1ncnc(C2CC2)c1-c1nc2c(c(NCc3ccc(-c4nc(C(F)(F)F)cn4C)cc3)n1)CCC2` [Example 1, 2-(4-cyclopropyl-6-methoxypyrimidin-5-yl)-N-(4-(1-methyl-4-(trifluoromethyl)-1H-imidazol-2-yl)benzyl)-6,7-dihydro-5H-cyclopenta[d]pyrimidin-4-amine], the half-life at 1 μM was found to be 108 min in data set [1] and 89.6 min in data set [4]. Besides, the pIC50 is 7.00 to 7.30 in data set [2] and more than 7.30 in data set [3]. Further, the inhibition at 10 µM in data set [5] was 25 to 50%.
With `COc1ncnc(C2CC2)c1-c1nc(NCc2ccc(-c3nc(C(F)(F)F)cn3C)cc2)c2cccn2n1` [Example 6, 2-(4-cyclopropyl-6-methoxypyrimidin-5-yl)-N-(4-(1-methyl-4-(trifluoromethyl)-1H-imidazol-2-yl)benzyl)pyrrolo[2,1-f][1,2,4]triazin-4-amine], the half-life at 1 μM in data set [1] is not below 300 min; in data set [4] it was not below 30 min. The negative-log IC50 (pIC50) in data set [2] and in data set [3] was more than 7.30 throughout. In data set [5], the inhibition at 10 µM fell in the range of 50 to 75%.
For the molecule `COc1ncnc(C2CC2)c1-c1nc2c(c(NCc3ccc(-c4nc(C(F)(F)F)cn4C(C)C)cc3)n1)CCC2` [Example 10, 2-(4-cyclopropyl-6-methoxypyrimidin-5-yl)-N-(4-(1-isopropyl-4-(trifluoromethyl)-1H-imidazol-2-yl)benzyl)-6,7-dihydro-5H-cyclopenta[d]pyrimidin-4-amine], the half-life at 1 μM in data set [1] was 134 min; in data set [4], 47 min. Also, the negative-log IC50 (pIC50) in data set [2] and in data set [3] was more than 7.30 in each case.
For the molecule `COc1ncnc(C2CC2)c1-c1nc2c(c(N(Cc3ccc(-c4nc(C(F)(F)F)cn4C)cc3)C(N)=O)n1)CCC2` [Example 12, 1-(2-(4-cyclopropyl-6-methoxypyrimidin-5-yl)-6,7-dihydro-5H-cyclopenta[d]pyrimidin-4-yl)-1-(4-(1-methyl-4-(trifluoromethyl)-1H-imidazol-2-yl)benzyl)urea], the half-life at 1 μM in data set [1] amounted to 9 min; in data set [4], 40.2 min. Further, in data set [2] (read-out: Biochemical assay % inhibition @1 μM), the inhibition at 1 µM is more than 75%. In data set [3], the inhibition at 10 µM was in the range of 50 to 75%.
For the molecule `COc1ncnc(C2CC2)c1-c1nc(NCc2ccc(-c3nc(C(F)(F)F)cn3C)cc2)c2[nH]cnc2n1` [Example 16, 2-(4-cyclopropyl-6-methoxypyrimidin-5-yl)-N-(4-(1-methyl-4-(trifluoromethyl)-1H-imidazol-2-yl)benzyl)-7H-purin-6-amine], the half-life at 1 μM in data set [1] is not below 700 min; in data set [4], not below 230 min. In data set [2], the pIC50 is 7.00 to 7.30. This molecule had an inhibition at 10 µM in data set [3] of 50 to 75%.
The molecule `COc1ncccc1-c1nc(NCc2ccc(-c3nc(C(F)(F)F)cn3C)cc2)c2ncn(C3CCCCO3)c2n1` (centres unmarked) [Example 31, 2-(2-methoxypyridin-3-yl)-N-(4-(1-methyl-4-(trifluoromethyl)-1H-imidazol-2-yl)benzyl)-9-(tetrahydro-2H-pyran-2-yl)-9H-purin-6-amine] displayed an inhibition at 10 µM in data set [5] of 25 to 50%.
With `COc1ncccc1-c1nc(NCc2ccc(-c3nc(C(F)(F)F)cn3C)cc2)c2[nH]cnc2n1` [Example 32, 2-(2-methoxypyridin-3-yl)-N-(4-(1-methyl-4-(trifluoromethyl)-1H-imidazol-2-yl)benzyl)-7H-purin-6-amine], the inhibition at 10 µM is more than 75% in data set [2] (read-out: Biochemical assay % inhibition @10 μM) and 50 to 75% in data set [5].
Regarding `COc1ccncc1-c1nc(NCc2ccc(-c3nc(C(F)(F)F)cn3C)cc2)c2ncn(C3CCCCO3)c2n1` (centres unmarked) [Example 33, 2-(4-methoxypyridin-3-yl)-N-(4-(1-methyl-4-(trifluoromethyl)-1H-imidazol-2-yl)benzyl)-9-(tetrahydro-2H-pyran-2-yl)-9H-purin-6-amine], the inhibition at 10 µM in data set [5] was 50 to 75%.
As for `COc1ncnc(C2CC2)c1-c1nc(NCc2ccc(-c3cccnc3)cc2)c2[nH]cnc2n1` [Example 76, 2-(4-cyclopropyl-6-methoxypyrimidin-5-yl)-N-(4-(pyridin-3-yl)benzyl)-7H-purin-6-amine], the half-life at 1 μM in data set [4] was found to be 10.1 min. The inhibition at 10 µM in data set [5] lay in the range of 25 to 50%.
In the case of `COc1ncnc(C2CC2)c1-c1nc(NCc2ccc(-c3ccc(F)cn3)cc2)c2[nH]cnc2n1` [Example 77, 2-(4-cyclopropyl-6-methoxypyrimidin-5-yl)-N-(4-(5-fluoropyridin-2-yl)benzyl)-7H-purin-6-amine], the inhibition at 10 µM in data set [5] is 50 to 75%.
